Reference: patent US20250129430A1, “HIGH ATP-AFFINITY PROTEIN AS THERAPEUTIC TARGET FOR INTRACTABLE CANCER MOLECULAR SUBTYPES AND INHIBITOR THEREOF” (VeraVerse Co., Ltd., priority 2021, published 2025)
Structures can show the parent of a compound that is named as a salt.

Key:
Type in all cases: cell-based, human
[1] = tested on: AGS; test: Cell viability drug screen, 12-point dose-response AUC; details: AGS cells (non-SEM subtype); 72 hours
Summary of the method: (§1)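 Dose-response AUC reflects 72 h drug exposure of gastric cancer cells in a 12-point, half-log format, with viability read by luminescence and normalized to DMSO (0.5%).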

[2] = tested on: Hs746T; test: as above; details: Hs746T cells (SEM subtype); 72 hours
Summary of the method: (§2)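 AUC values represent the area under DMSO-normalized 12-point curves, computed by trapezoid rule and averaged over repeated experiments. Each EMT-type gastric line was exposed to half-log serial concentrations for 72 h at 37 °C, and viability was measured with a Glo luminescence kit.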

[3] = tested on: KATO3; test: as above; details: KATO3 cells; 72 hours
Summary of the method: as §2

[4] = tested on: MKN1; test: as above; details: MKN1 cells; 72 hours
Summary of the method: as §2

[5] = tested on: MKN28; test: as above; details: MKN28 cells; 72 hours
Summary of the method: as §2

[6] = tested on: MKN45; test: as above; details: MKN45 cells (non-SEM subtype); 72 hours
Summary of the method: as §1

[7] = tested on: MKN74; test: as above; details: MKN74 cells; 72 hours
Summary of the method: as §1

[8] = tested on: NCC19; test: as above; details: NCC19 cells; 72 hours
Summary of the method: as §2

[9] = tested on: NCC20; test: as above; details: NCC20 cells; 72 hours
Summary of the method: as §2

[10] = tested on: NCC24; test: as above; details: NCC24 cells; 72 hours
Summary of the method: as §2

[11] = tested on: NCC59; test: as above; details: NCC59 cells; 72 hours
Summary of the method: as §2

[12] = tested on: NCI_N87; test: as above; details: NCI_N87 cells; 72 hours
Summary of the method: as §2

[13] = tested on: OCUM1; test: as above; details: OCUM1 cells; 72 hours
Summary of the method: as §2

[14] = tested on: SK4; test: as above; details: SK4 cells (SEM subtype); 72 hours
Summary of the method: as §2

[15] = tested on: SNU16; test: as above; details: SNU16 cells; 72 hours
Summary of the method: as §2

[16] = tested on: SNU1750; test: as above; details: SNU1750 cells (SEM subtype); 72 hours
Summary of the method: as §2

[17] = tested on: SNU1967; test: as above; details: SNU1967 cells; 72 hours
Summary of the method: as §2

[18] = tested on: SNU1; test: as above; details: SNU1 cells; 72 hours
Summary of the method: as §2

[19] = tested on: SNU216; test: as above; details: SNU216 cells (non-SEM subtype); 72 hours
Summary of the method: as §1

[20] = tested on: SNU484; test: as above; details: SNU484 cells (SEM subtype); 72 hours
Summary of the method: as §2

[21] = tested on: SNU601; test: as above; details: SNU601 cells; 72 hours
Summary of the method: as §2

[22] = tested on: SNU620; test: as above; details: SNU620 cells; 72 hours
Summary of the method: as §2

[23] = tested on: SNU638; test: as above; details: SNU638 cells; 72 hours
Summary of the method: as §2

[24] = tested on: SNU668; test: as above; details: SNU668 cells (SEM subtype); 72 hours
Summary of the method: as §2

[25] = tested on: SNU719; test: as above; details: SNU719 cells; 72 hours
Summary of the method: as §1

[26] = tested on: YCC11; test: as above; details: YCC11 cells (SEM subtype); 72 hours
Summary of the method: as §2

[27] = tested on: YCC2; test: as above; details: YCC2 cells; 72 hours
Summary of the method: as §2

[28] = tested on: YCC3; test: as above; details: YCC3 cells; 72 hours
Summary of the method: as §2

[29] = tested on: FU97; test: as above; parameters: Average Area Under the Viability Curve (AUC), AUC norm value: scale not given here; details: FU97 cells; 72 hours
Summary of the method: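 Trapezoidal AUC of a 12-point, DMSO-normalized dose-response curve. Luminescent viability was measured after 72 h of exposure at 37° C to half-log serial dilutions (0.5% DMSO control), dosed 24 h after plating FU97 cells at 5×10^3 per well.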

[30] = tested on: non-SEM-type gastric cancer cell line; test: Cell viability drug screen, AUC summary over non-SEM-type lines; details: in the non-SEM-type gastric cancer cell line

SMILES	Average Area Under the Viability Curve (AUC), AUC norm value [1]	Average Area Under the Viability Curve (AUC), AUC norm value [2]	Average Area Under the Viability Curve (AUC), AUC norm value [3]	Average Area Under the Viability Curve (AUC), AUC norm value [4]	Average Area Under the Viability Curve (AUC), AUC norm value [5]	Average Area Under the Viability Curve (AUC), AUC norm value [6]	Average Area Under the Viability Curve (AUC), AUC norm value [7]	Average Area Under the Viability Curve (AUC), AUC norm value [8]	Average Area Under the Viability Curve (AUC), AUC norm value [9]	Average Area Under the Viability Curve (AUC), AUC norm value [10]	Average Area Under the Viability Curve (AUC), AUC norm value [11]	Average Area Under the Viability Curve (AUC), AUC norm value [12]	Average Area Under the Viability Curve (AUC), AUC norm value [13]	Average Area Under the Viability Curve (AUC), AUC norm value [14]	Average Area Under the Viability Curve (AUC), AUC norm value [15]	Average Area Under the Viability Curve (AUC), AUC norm value [16]	Average Area Under the Viability Curve (AUC), AUC norm value [17]	Average Area Under the Viability Curve (AUC), AUC norm value [18]	Average Area Under the Viability Curve (AUC), AUC norm value [19]	Average Area Under the Viability Curve (AUC), AUC norm value [20]	other results
c1ccc2c(-c3cnn4cc(-c5ccc(N6CCNCC6)cc5)cnc34)ccnc2c1 [LDN193189]	−0.1896	−0.2954	0.6205	0	0.5758	0.9516	−1.246	0.06094	0.02059	−0.1464	1.892	1.172	−1.113	−0.5339	1.525	−0.4695	−1.419	0.8706	−0.7838	−0.5999	Average Area Under the Viability Curve (AUC), AUC norm value [21]: 3.699; Average Area Under the Viability Curve (AUC), AUC norm value [22]: −2.131; Average Area Under the Viability Curve (AUC), AUC norm value [23]: −0.9699; Average Area Under the Viability Curve (AUC), AUC norm value [24]: 0.06394; Average Area Under the Viability Curve (AUC), AUC norm value [25]: 0.6043; Average Area Under the Viability Curve (AUC), AUC norm value [26]: −0.7359; Average Area Under the Viability Curve (AUC), AUC norm value [27]: 0.1163; Average Area Under the Viability Curve (AUC), AUC norm value [28]: 0.08342; Average Area Under the Viability Curve (AUC), AUC norm value [29]: −0.1434; AUC value [30]: high
COC1=CC(c2cc3ccccc3[nH]2)=N/C1=C\c1[nH]c(C)cc1C [Obatoclax mesylate (GX15-070), Obatoclax mesylate]	−0.9005	0	1.383	0.7857	−0.3769	0.9313	−1.051	1.604	−0.9868	0.2511	2.5912	0.636	0.1302	−1.531	1.841	−0.872	−0.4093	0.5238	−0.1398	−1.4	Average Area Under the Viability Curve (AUC), AUC norm value [21]: 2.791; Average Area Under the Viability Curve (AUC), AUC norm value [22]: 0.8129; Average Area Under the Viability Curve (AUC), AUC norm value [23]: −0.5094; Average Area Under the Viability Curve (AUC), AUC norm value [24]: −0.2715; Average Area Under the Viability Curve (AUC), AUC norm value [25]: 2.585; Average Area Under the Viability Curve (AUC), AUC norm value [26]: −0.8407; Average Area Under the Viability Curve (AUC), AUC norm value [27]: −0.5916; Average Area Under the Viability Curve (AUC), AUC norm value [28]: 2.281; Average Area Under the Viability Curve (AUC), AUC norm value [29]: −1.5029; AUC value [30]: high
